Where “and” joins values, the source holds several entries; their conditions need not be identical. Identical values can stand only once. Inconclusive results and toxic doses are left out. How the source made its calls: active means survival T/C of 150% or more; inactive means T/C below 125% in these data. Residues, ends and D or L forms follow the SMILES beside them.
System: BDF1 mice, P388 leukemia ip, median survival T/C
Test: NCI In Vivo Anticancer Drug Screen. Data for tumor model P388 Leukemia (intraperitoneal) in B6D2F1 (BDF1) mice
Settings: endpoint: median survival time, higher = longer survival
Procedure: The antitumor activity of compounds was measured in mice bearing transplantable tumors. Survival or tumor size were measured and the results are expressed as the measurement made in the treated group (T) divided by the measurement made in the vehicle treated control group (C). The tumor model used in this assay is P388 Leukemia (intraperitoneal) in B6D2F1 (BDF1) mice

[1] = dose: 25.0 mg/kg/injection, schedule: Q01DX009 (ip), vehicle: saline with Tween-80
[2] = dose: 50.0 mg/kg/injection, schedule: Q01DX009 (ip), vehicle: saline with Tween-80
[3] = dose: 50.0 mg/kg/injection, schedule: Q04DX003 (ip), vehicle: saline with Tween-80
[4] = dose: 100.0 mg/kg/injection, schedule: Q04DX003 (ip), vehicle: saline with Tween-80
[5] = dose: 100.0 mg/kg/injection, schedule: Q01DX009 (ip), vehicle: saline with Tween-80
[6] = dose: 200.0 mg/kg/injection, schedule: Q04DX003 (ip), vehicle: saline with Tween-80
[7] = dose: 400.0 mg/kg/injection, schedule: Q04DX003 (ip), vehicle: saline with Tween-80

Measured: T/C

COc1cccc(C(=O)C=C(C(F)(F)F)C(F)(F)F)c1
inactive: dose: 11.0 mg/kg/injection, schedule: Q01DX009 (ip), vehicle: saline with Tween-80 109 % of control | dose: 16.5 mg/kg/injection, schedule: Q01DX009 (ip), vehicle: saline with Tween-80 109 % of control | [1] 113 % of control

COC(=O)c1ccc(CBr)cc1
inactive: [1] 103 % of control | dose: 25.0 mg/kg/injection, schedule: Q04DX003 (ip), vehicle: saline with Tween-80 100 % of control | [2] 92 % of control | [3] 91 % of control | [4] 100 % of control

CC1(CNC(=O)C(=O)NCC2(C)CO2)CO1 (stereo unspecified)
active: [3] 158 % of control | [5] 154 % of control | [4] 191 % of control | dose: 132.0 mg/kg/injection, schedule: Q04DX003 (ip), vehicle: saline with Tween-80 208 % of control | [6] 183 % of control | dose: 300.0 mg/kg/injection, schedule: Q04DX003 (ip), vehicle: saline with Tween-80 233 % of control

CN(C)c1ccc(/C=C/c2ccnc3c(N)cccc23)cc1
inactive: dose: 100.0 mg/kg/injection, schedule: Q04DX002 (ip), vehicle: saline with Tween-80 110 % of control | dose: 200.0 mg/kg/injection, schedule: Q04DX002 (ip), vehicle: saline with Tween-80 113 % of control | dose: 400.0 mg/kg/injection, schedule: Q04DX002 (ip), vehicle: saline with Tween-80 116 % of control

CN1C(=O)c2ccccc2CC12c1ccccc1C(=O)N2C (stereo unspecified)
inactive: dose: 50.0 mg/kg/injection, schedule: Q01DX005 (ip), vehicle: saline with Tween-80 86 % of control | dose: 200.0 mg/kg/injection, schedule: Q01DX005 (ip), vehicle: saline with Tween-80 86 % of control

O=c1[nH]cc(N(CCCl)CCCl)c(=O)[nH]1
active: dose: 0.38 mg/kg/injection, schedule: Q01DX010 (ip), vehicle: saline 218 % of control | dose: 0.75 mg/kg/injection, schedule: Q01DX010 (ip), vehicle: saline 300 % of control | dose: 1.5 mg/kg/injection, schedule: Q01DX010 (ip), vehicle: saline 204 % of control

CCOC(=O)NC12c3ccccc3C(c3ccccc31)C(C(=O)O)C2C(=O)O (stereo unspecified)
inactive: [4] 118 % of control | [6] 118 % of control | [7] 118 % of control

OCc1cccc(F)c1
inactive: dose: 100.0 mg/kg/injection, schedule: Q01DX009 (ip), vehicle: saline 96 % of control | dose: 100.0 mg/kg/injection, schedule: Q04DX003 (ip), vehicle: saline 109 % of control | dose: 200.0 mg/kg/injection, schedule: Q01DX009 (ip), vehicle: saline 107 % of control | dose: 200.0 mg/kg/injection, schedule: Q04DX003 (ip), vehicle: saline 109 % of control | dose: 400.0 mg/kg/injection, schedule: Q04DX003 (ip), vehicle: saline 104 % of control

CCOS(=O)(=O)c1ccc([N+](=O)[O-])cc1[N+](=O)[O-]
inactive: dose: 50.0 mg/kg/injection, schedule: Q01DX001 (ip), vehicle: saline 95 % of control | dose: 100.0 mg/kg/injection, schedule: Q01DX001 (ip), vehicle: saline 104 % of control | dose: 200.0 mg/kg/injection, schedule: Q01DX001 (ip), vehicle: saline 118 % of control

NC1CC2(CCC1=O)c1ccccc1-c1ccccc12 (stereo unspecified)
inactive: dose: 25.0 mg/kg/injection, schedule: Q01DX001 (ip), vehicle: saline with Tween-80 96 % of control | dose: 50.0 mg/kg/injection, schedule: Q01DX001 (ip), vehicle: saline with Tween-80 94 % of control | dose: 100.0 mg/kg/injection, schedule: Q01DX001 (ip), vehicle: saline with Tween-80 97 % of control

Nc1nc(SCc2ccc([N+](=O)[O-])cc2)c2[nH]cnc2n1
inactive: dose: 100.0 mg/kg/injection, schedule: Q04DX003 (ip), vehicle: saline sonified 110 % of control | dose: 200.0 mg/kg/injection, schedule: Q04DX003 (ip), vehicle: saline sonified 110 % of control | dose: 400.0 mg/kg/injection, schedule: Q04DX003 (ip), vehicle: saline sonified 100 % of control

CCOC(=O)c1ccc(Oc2ncc([N+](=O)[O-])s2)cc1
inactive: dose: 1.85 mg/kg/injection, schedule: Q01DX009 (ip), vehicle: saline 90 % of control | dose: 3.71 mg/kg/injection, schedule: Q01DX009 (ip), vehicle: saline 100 % of control | dose: 7.42 mg/kg/injection, schedule: Q01DX009 (ip), vehicle: saline 90 % of control | dose: 10.0 mg/kg/injection, schedule: Q01DX009 (ip), vehicle: saline with Tween-80 90 % of control | dose: 16.0 mg/kg/injection, schedule: Q01DX009 (ip), vehicle: saline with Tween-80 86 % of control | dose: 24.0 mg/kg/injection, schedule: Q01DX009 (ip), vehicle: saline with Tween-80 95 % of control

COc1ccc2c(Cc3ccccc3)cncc2c1O
inactive: dose: 6.25 mg/kg/injection, schedule: Q01DX009 (ip), vehicle: Klucel (hydroxypropylcellulose) (HPC) 99 % of control | dose: 12.5 mg/kg/injection, schedule: Q01DX009 (ip), vehicle: Klucel (hydroxypropylcellulose) (HPC) 100 % of control | dose: 25.0 mg/kg/injection, schedule: Q01DX009 (ip), vehicle: Klucel (hydroxypropylcellulose) (HPC) 105 % of control | dose: 50.0 mg/kg/injection, schedule: Q01DX009 (ip), vehicle: Klucel (hydroxypropylcellulose) (HPC) 108 % of control | dose: 100.0 mg/kg/injection, schedule: Q01DX009 (ip), vehicle: Klucel (hydroxypropylcellulose) (HPC) 117 % of control

CC(C)CCC[C@@H](C)[C@H]1CC[C@H]2[C@@H]3CC[C@H]4C[C@H]5N[C@H]5C[C@]4(C)[C@H]3CC[C@]12C
inactive: dose: 50.0 mg/kg/injection, schedule: Q01DX001 (ip), vehicle: saline sonified 100 % of control | dose: 100.0 mg/kg/injection, schedule: Q01DX001 (ip), vehicle: saline sonified 95 % of control

COC(=O)C(NC(=O)C(NC(=O)C(N)C(C)C)C(C)C)C(C)C (stereo not drawn) (H-Val-Val-Val-OMe; configuration not given here)
inactive: dose: 50.0 mg/kg/injection, schedule: Q01DX005 (ip), vehicle: saline 101 % of control | dose: 100.0 mg/kg/injection, schedule: Q01DX005 (ip), vehicle: saline 99 % of control | dose: 200.0 mg/kg/injection, schedule: Q01DX005 (ip), vehicle: saline 92 % of control

S=c1nc[nH]c2nc[nH]c12
inactive: dose: 12.5 mg/kg/injection, schedule: Q01DX009 (ip), vehicle: saline with Tween-80 104 % of control | dose: 20.0 mg/kg/injection, schedule: Q01DX010 (ip), vehicle: saline 100 % of control | dose: 20.0 mg/kg/injection, schedule: Q01DX010 (ip), vehicle: water 110 % of control | [1] 113 % of control | dose: 26.0 mg/kg/injection, schedule: Q01DX009 (ip), vehicle: alkali diluted with saline 104 % of control and 107 % of control | dose: 30.0 mg/kg/injection, schedule: Q01DX010 (ip), vehicle: saline 90 % of control and 104 % of control | dose: 40.0 mg/kg/injection, schedule: Q01DX010 (ip), vehicle: saline 100 % of control | dose: 40.0 mg/kg/injection, schedule: Q01DX010 (ip), vehicle: water 110 % of control | dose: 60.0 mg/kg/injection, schedule: Q01DX010 (ip), vehicle: water 110 % of control | dose: 72.0 mg/kg/injection, schedule: Q01DX009 (ip), vehicle: alkali diluted with saline 117 % of control | dose: 80.0 mg/kg/injection, schedule: Q01DX010 (ip), vehicle: saline 104 % of control | dose: 90.0 mg/kg/injection, schedule: Q01DX009 (ip), vehicle: alkali diluted with saline 107 % of control and 111 % of control | dose: 120.0 mg/kg/injection, schedule: Q01DX009 (ip), vehicle: alkali diluted with saline 103 % of control | dose: 120.0 mg/kg/injection, schedule: Q01DX010 (ip), vehicle: saline 109 % of control | dose: 160.0 mg/kg/injection, schedule: Q01DX010 (ip), vehicle: saline 90 % of control
active: dose: 15.0 mg/kg/injection, schedule: Q01DX010 (ip), vehicle: saline 150 % of control

Cn1c(=O)c2[nH]cnc2n(C)c1=O
inactive: dose: 25.0 mg/kg/injection, schedule: Q01DX010 (ip), vehicle: saline 95 % of control | dose: 50.0 mg/kg/injection, schedule: Q01DX010 (ip), vehicle: saline 104 % of control | dose: 100.0 mg/kg/injection, schedule: Q01DX010 (ip), vehicle: saline 100 % of control | dose: 200.0 mg/kg/injection, schedule: Q01DX010 (ip), vehicle: saline 104 % of control

CCCCN(CCCC)CC(O)c1c2cccc(Cl)c2cc2c(Cl)cccc12 (stereo unspecified)
inactive: [2] 107 % of control | [5] 102 % of control | dose: 200.0 mg/kg/injection, schedule: Q01DX009 (ip), vehicle: saline with Tween-80 123 % of control

OCCN(CCO)c1cc(O)cc(O)c1
inactive: [4] 106 % of control | [6] 120 % of control | [7] 117 % of control

Source: PubChem BioAssay AID328 (DTP/NCI, 2004)
